Measurements as given in the NIST ThermoML archive (doi:10.1016/j.jct.2012.01.008).
± gives the expanded uncertainty stated by the source.

Conditions: Liquid, Vibrating tube method

Row | SMILES | mass density (298.15 K, 100 kPa) [kg/m3] | mass density (298.15 K, 10000 kPa) [kg/m3] | mass density (298.15 K, 15000 kPa) [kg/m3] | mass density (298.15 K, 20000 kPa) [kg/m3] | mass density (298.15 K, 25000 kPa) [kg/m3] | mass density (298.15 K, 30000 kPa) [kg/m3] | mass density (298.15 K, 35000 kPa) [kg/m3] | mass density (298.15 K, 40000 kPa) [kg/m3] | mass density (298.15 K, 45000 kPa) [kg/m3] | mass density (298.15 K, 50000 kPa) [kg/m3] | mass density (318.15 K, 100 kPa) [kg/m3] | mass density (318.15 K, 10000 kPa) [kg/m3] | mass density (318.15 K, 15000 kPa) [kg/m3] | mass density (318.15 K, 20000 kPa) [kg/m3] | mass density (318.15 K, 25000 kPa) [kg/m3] | mass density (318.15 K, 30000 kPa) [kg/m3] | mass density (318.15 K, 35000 kPa) [kg/m3] | mass density (318.15 K, 40000 kPa) [kg/m3] | mass density (318.15 K, 45000 kPa) [kg/m3] | mass density (318.15 K, 50000 kPa) [kg/m3] | other results
1 | CCC[N+]1(C)CCCCC1.O=S(=O)([N-]S(=O)(=O)C(F)(F)F)C(F)(F)F | 1408.9 ± 0.6 | 1415.4 ± 0.8 | 1418.7 ± 0.8 | 1421.9 ± 0.9 | 1424.8 ± 1 | 1427.7 ± 1.1 | 1430.4 ± 1.2 | 1433.2 ± 1.3 | 1436.1 ± 1.4 | 1438.8 ± 1.5 | 1392.1 ± 0.6 | 1398.9 ± 0.7 | 1402.4 ± 0.8 | 1405.4 ± 0.9 | 1408.6 ± 1 | 1411.8 ± 1.1 | 1414.7 ± 1.2 | 1417.6 ± 1.2 | 1420.5 ± 1.3 | 1423.3 ± 1.4 | mass density (348.15 K, 100 kPa): 1366.3 ± 0.6 kg/m3; mass density (348.15 K, 10000 kPa): 1373.5 ± 0.7 kg/m3; mass density (348.15 K, 15000 kPa): 1377.2 ± 0.8 kg/m3; mass density (348.15 K, 20000 kPa): 1380.8 ± 0.9 kg/m3; mass density (348.15 K, 25000 kPa): 1384.1 ± 0.9 kg/m3; mass density (348.15 K, 30000 kPa): 1387.6 ± 1 kg/m3; mass density (348.15 K, 35000 kPa): 1390.7 ± 1.1 kg/m3; mass density (348.15 K, 40000 kPa): 1393.8 ± 1.2 kg/m3; mass density (348.15 K, 45000 kPa): 1397 ± 1.3 kg/m3; mass density (348.15 K, 50000 kPa): 1399.9 ± 1.4 kg/m3
2 | COc1ccccc1 [anisole] | 989.2 ± 0.3 | 995.6 ± 0.3 | 998.5 ± 0.3 | 1001.4 ± 0.3 | 1004.1 ± 0.3 | 1006.9 ± 0.3 | 1009.7 ± 0.3 | 1012.5 ± 0.3 | 1015.2 ± 0.3 | 1017.5 ± 0.3 | 969.9 ± 0.3 | 977.3 ± 0.3 | 980.4 ± 0.3 | 983.6 ± 0.3 | 986.9 ± 0.3 | 989.8 ± 0.3 | 992.9 ± 0.3 | 995.7 ± 0.3 | 998.6 ± 0.3 | 1001.5 ± 0.3 | mass density (348.15 K, 100 kPa): 941.3 ± 0.3 kg/m3; mass density (348.15 K, 10000 kPa): 949.8 ± 0.3 kg/m3; mass density (348.15 K, 15000 kPa): 953.5 ± 0.3 kg/m3; mass density (348.15 K, 20000 kPa): 957.3 ± 0.3 kg/m3; mass density (348.15 K, 25000 kPa): 961.1 ± 0.3 kg/m3; mass density (348.15 K, 30000 kPa): 964.5 ± 0.3 kg/m3; mass density (348.15 K, 35000 kPa): 967.9 ± 0.3 kg/m3; mass density (348.15 K, 40000 kPa): 971 ± 0.3 kg/m3; mass density (348.15 K, 45000 kPa): 974.5 ± 0.3 kg/m3; mass density (348.15 K, 50000 kPa): 977.8 ± 0.3 kg/m3
3 | CC(=O)c1ccccc1 [acetophenone] | 1023.4 ± 0.3 | 1029 ± 0.3 | 1031.7 ± 0.3 | 1034.3 ± 0.3 | 1036.8 ± 0.3 | 1039.3 ± 0.4 | 1041.8 ± 0.4 | 1044.4 ± 0.4 | 1046.7 ± 0.4 | 1049 ± 0.4 | 1005.9 ± 0.3 | 1012.2 ± 0.3 | 1015.2 ± 0.3 | 1018.1 ± 0.3 | 1020.9 ± 0.3 | 1023.6 ± 0.3 | 1026.4 ± 0.3 | 1028.8 ± 0.4 | 1031.5 ± 0.4 | 1034 ± 0.4 | mass density (348.15 K, 100 kPa): 979.6 ± 0.3 kg/m3; mass density (348.15 K, 10000 kPa): 987.1 ± 0.3 kg/m3; mass density (348.15 K, 15000 kPa): 990.5 ± 0.3 kg/m3; mass density (348.15 K, 20000 kPa): 993.6 ± 0.3 kg/m3; mass density (348.15 K, 25000 kPa): 996.9 ± 0.3 kg/m3; mass density (348.15 K, 30000 kPa): 1000.1 ± 0.3 kg/m3; mass density (348.15 K, 35000 kPa): 1003.1 ± 0.3 kg/m3; mass density (348.15 K, 40000 kPa): 1006.1 ± 0.3 kg/m3; mass density (348.15 K, 45000 kPa): 1009 ± 0.3 kg/m3; mass density (348.15 K, 50000 kPa): 1011.7 ± 0.3 kg/m3
